For assay [1], the target named is T1, rat SSTR2 somatostatin receptor subtype (Rattus norvegicus, UniProt P30680).
T1 construct: expressed in transfected cells; host or cells: Saccharomyces cerevisiae YPH500 derivatives CY624 (Gαi2), CY602 (Gαs), CY603 (Scg1); crude membranes
Nature of the assay: Binding of radiolabeled somatostatin 14 to membranes of yeast expressing SSTR2. As to conditions: for percent radioligand bound compared to untreated samples, +Gpp(NH)p: Gpp(NH)p 100 μM.

Another assay concerns porcine SSTR2. The assay is described as follows: Agar plate growth bioassay, yeast expressing porcine SSTR2 (LY474). Format: cell-based.
Assay [2] deals with T2, rat CCKB receptor (Rattus norvegicus, UniProt P30553).
T2 construct: expressed in transfected cells; host or cells: Saccharomyces cerevisiae LY296 derivatives LY631 (Gpa1-Gαs chimera, pLP122) and LY628 (Gpa1-Gαi2 chimera, pLP121)
T2 sequence (P30553 1-452): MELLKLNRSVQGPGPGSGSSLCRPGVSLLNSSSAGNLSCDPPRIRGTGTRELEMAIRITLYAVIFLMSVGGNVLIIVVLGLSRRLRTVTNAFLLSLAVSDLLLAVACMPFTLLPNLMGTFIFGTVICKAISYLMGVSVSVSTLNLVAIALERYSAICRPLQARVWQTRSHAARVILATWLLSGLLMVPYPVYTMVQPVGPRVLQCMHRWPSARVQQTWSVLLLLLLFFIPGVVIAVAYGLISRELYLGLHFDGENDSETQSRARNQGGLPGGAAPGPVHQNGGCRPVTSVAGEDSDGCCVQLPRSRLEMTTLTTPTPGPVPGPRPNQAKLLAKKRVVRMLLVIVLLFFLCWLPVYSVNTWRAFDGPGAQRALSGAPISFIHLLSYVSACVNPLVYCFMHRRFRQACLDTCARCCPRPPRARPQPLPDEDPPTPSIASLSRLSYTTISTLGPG
The assay is described as follows: Agar plate growth bioassay, yeast expressing CCKB receptor (LY628, LY631). In kind it is cell-based.

The target of a further assay is T3, rat SSTR5 (Rattus norvegicus, UniProt P30938).
T3 construct: expressed in transfected cells; host or cells: Saccharomyces cerevisiae LY620 (LY296 with pJH19 and pLP121 Gpa1-Gαi2)
T3 sequence (P30938 1-363): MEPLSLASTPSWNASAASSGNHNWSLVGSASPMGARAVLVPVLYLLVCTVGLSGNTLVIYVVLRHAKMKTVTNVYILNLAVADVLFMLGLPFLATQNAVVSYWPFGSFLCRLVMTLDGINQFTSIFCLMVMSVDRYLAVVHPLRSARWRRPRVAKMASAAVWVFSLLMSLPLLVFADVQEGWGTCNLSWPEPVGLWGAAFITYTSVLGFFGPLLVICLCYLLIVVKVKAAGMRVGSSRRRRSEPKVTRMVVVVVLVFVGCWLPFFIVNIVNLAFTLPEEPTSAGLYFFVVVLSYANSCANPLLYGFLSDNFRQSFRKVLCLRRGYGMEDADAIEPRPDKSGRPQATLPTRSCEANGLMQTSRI
Nature of the assay: Agar plate growth bioassay, yeast expressing SSTR5 (LY620). Format: cell-based.

The next assay deals with T4, human GRF receptor (Homo sapiens, UniProt Q02643).
T4 construct: expressed in transfected cells; host or cells: Saccharomyces cerevisiae CY990 (LY296 with pJH25 and pLP122 Gpa1-Gαs)
T4 sequence (Q02643 23-423): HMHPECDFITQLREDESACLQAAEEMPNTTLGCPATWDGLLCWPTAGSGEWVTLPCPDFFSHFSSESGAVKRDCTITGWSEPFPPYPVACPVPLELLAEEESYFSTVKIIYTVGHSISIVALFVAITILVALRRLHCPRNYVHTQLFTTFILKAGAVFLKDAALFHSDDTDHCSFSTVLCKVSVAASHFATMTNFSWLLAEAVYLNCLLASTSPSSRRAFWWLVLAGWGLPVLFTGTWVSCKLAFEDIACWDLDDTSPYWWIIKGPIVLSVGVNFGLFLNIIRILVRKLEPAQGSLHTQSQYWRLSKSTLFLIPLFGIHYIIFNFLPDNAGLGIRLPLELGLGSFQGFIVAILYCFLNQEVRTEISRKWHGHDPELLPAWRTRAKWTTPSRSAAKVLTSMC
Nature of the assay: Agar plate growth bioassay, yeast expressing GRF receptor (CY990). In kind it is cell-based.

A further assay addresses T5, human 5HTla receptor (Homo sapiens, UniProt P08908).
T5 construct: first 14 amino acids of yeast Ste2 (N); expressed in transfected cells; host or cells: Saccharomyces cerevisiae strain CY382 (plasmid pCHI11), membrane fractions
T5 sequence (P08908 with tags, fused parts or gaps): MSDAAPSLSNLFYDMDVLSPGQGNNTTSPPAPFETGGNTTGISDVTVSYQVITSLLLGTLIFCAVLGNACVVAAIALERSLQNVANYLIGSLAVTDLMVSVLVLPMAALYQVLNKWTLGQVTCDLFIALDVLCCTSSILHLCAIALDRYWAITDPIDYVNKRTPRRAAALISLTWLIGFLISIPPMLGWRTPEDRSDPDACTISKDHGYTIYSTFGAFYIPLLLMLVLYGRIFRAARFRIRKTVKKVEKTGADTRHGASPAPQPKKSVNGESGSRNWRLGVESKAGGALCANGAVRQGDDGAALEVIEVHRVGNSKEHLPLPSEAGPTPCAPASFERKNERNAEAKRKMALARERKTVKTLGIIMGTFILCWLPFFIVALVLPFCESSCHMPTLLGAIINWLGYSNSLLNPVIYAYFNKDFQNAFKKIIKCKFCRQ
The assay is described as follows: Saturation binding of 3H-spiperone to yeast membrane fractions (strain CY382, pCHI11).

Assay [3] addresses T2, rat CCKB receptor. Nature of the assay: Radiolabeled agonist saturation binding of 3H-CCK-8, yeast membranes (LY631). The note with it: GppNHp 100 μM, LY631 crude membranes.
Description: Ligand-binding to the rat CCKBreceptor expressed in yeast. Crude membrane fractions from overnight liquid cultures of LY631 cells were prepared, and agonist saturation binding assays conducted as described in Methods and Materials. Saturation binding was performed with 4-60 nM[^3H]
Radiolabeled agonist saturation binding assays. Crude yeast membrane extracts from late log phase cultures were prepared by glass-bead lysis and centrifugation at 40,000 xg following a published procedure (13). […] Non-specific binding was defined as that observed in the presence of 1 μM CCK-4.
In assay [4] the target is porcine SSTR2 expressed from plasmid pJH17 (porcine) (UniProt P34994). Nature of the assay: saturation radioligand binding, crude membranes of yeast cells bearing pJH17.
The target of assay [5] is rat SSTR2 somatostatin receptor subtype (rat) (UniProt P30680). Nature of the assay: maximal radioligand binding, crude membranes of yeast strain CY602 (SSTR2 with Gαs).
Sequence of rat SSTR2 somatostatin receptor subtype (rat) (P30680 whole entry): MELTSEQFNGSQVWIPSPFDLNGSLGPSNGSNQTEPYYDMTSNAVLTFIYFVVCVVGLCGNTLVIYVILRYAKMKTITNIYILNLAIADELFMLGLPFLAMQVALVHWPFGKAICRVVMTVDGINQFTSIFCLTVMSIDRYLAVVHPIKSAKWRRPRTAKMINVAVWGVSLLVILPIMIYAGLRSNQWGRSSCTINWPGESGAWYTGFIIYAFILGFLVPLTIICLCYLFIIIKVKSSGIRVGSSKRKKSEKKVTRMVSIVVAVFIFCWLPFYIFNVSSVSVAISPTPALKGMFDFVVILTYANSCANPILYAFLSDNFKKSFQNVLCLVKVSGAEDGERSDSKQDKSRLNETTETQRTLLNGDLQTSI
For assay [6] the target is unchanged. Nature of the assay: maximal radioligand binding, crude membranes of yeast strain CY603 (SSTR2 with Scg1).
Assay [7] has the same target. Nature of the assay: maximal radioligand binding, crude membranes of yeast strain CY624 (SSTR2 with Gαi2).
Assay [8] shares this target. Nature of the assay: saturation radioligand binding, membranes of yeast coexpressing SSTR2 and Scg1/Gαi2.
Assay [9] has the same target. The assay is described as follows: radioligand binding with Gpp(NH)p (100 µM), crude membranes of yeast strain CY602 (SSTR2 with Gαs).
The target is the same in assay [10]. Nature of the assay: radioligand binding with Gpp(NH)p (100 µM), crude membranes of yeast strain CY603 (SSTR2 with Scg1).
Assay [11] shares this target. The assay is described as follows: radioligand binding with Gpp(NH)p (100 µM), crude membranes of yeast strain CY624 (SSTR2 with Gαi2).
Another assay has as its target rat SSTR2 (Rattus norvegicus, UniProt P30680). In kind it is cell-based.
Assay [12] addresses human GRF receptor (human) (UniProt Q02643). The assay is described as follows: cell-based or functional assay.
Another assay has as its target rat CCKB receptor (rat) (UniProt P30553). The assay is described as follows: cell-based or functional assay.
Setting [13] is: LY628 and LY631 cells, 30° C., 3 days.

Read-outs that look alike come from different tables or passages of the source. Residues, ends and D or L forms follow the SMILES beside them.

T1 sequence (P30680 with tags, fused parts or gaps limits assumed): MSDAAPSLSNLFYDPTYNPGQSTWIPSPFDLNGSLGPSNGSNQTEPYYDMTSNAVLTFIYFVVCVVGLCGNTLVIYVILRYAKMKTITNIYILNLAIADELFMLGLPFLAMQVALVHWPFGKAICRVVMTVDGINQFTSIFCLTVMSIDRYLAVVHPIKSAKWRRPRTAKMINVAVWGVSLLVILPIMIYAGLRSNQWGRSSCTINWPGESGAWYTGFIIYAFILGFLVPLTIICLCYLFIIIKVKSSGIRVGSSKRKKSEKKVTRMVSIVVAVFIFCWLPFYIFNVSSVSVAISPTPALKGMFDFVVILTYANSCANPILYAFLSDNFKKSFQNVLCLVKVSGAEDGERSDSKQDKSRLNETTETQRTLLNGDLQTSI
Sequence of rat SSTR2 (P30680 whole entry): as the sequence (P30680 whole entry) above

Consider `C[C@H](N)C(=O)NCC(=O)N[C@H]1CSSC[C@@H](C(=O)O)NC(=O)[C@H](CO)NC(=O)[C@H]([C@@H](C)O)NC(=O)[C@H](Cc2ccc(O)c(I)c2)NC(=O)[C@H]([C@@H](C)O)NC(=O)[C@H](CCCCN)NC(=O)[C@H](Cc2c[nH]c3ccccc23)NC(=O)[C@H](Cc2ccccc2)NC(=O)[C@H](Cc2ccccc2)NC(=O)[C@H](CC(N)=O)NC(=O)[C@H](CCCCN)NC1=O` [[^125I]tyr^11S-14] (HELM PEPTIDE1{A.G.C.K.N.F.F.W.K.T.[O=C([C@H](Cc1ccc(O)c(I)c1)N[*:1])[*:2]].T.S.C}$PEPTIDE1,PEPTIDE1,3:R3-14:R3$$$V2.0; N-terminus and C-terminus assumed; bridges inferred), for which the Bmax in assay [1] (strain CY602, Gαs) was determined as 13.7 fmol/mg total protein; in assay [1] (strain CY603, Scgl) it was 24.7 fmol/mg total protein; in [1] (strain CY624, Gαi), 94.5 fmol/mg total protein. Moreover, the Kd (commonly the equilibrium constant for the complex coming apart) in assay [1] (yeast coexpressing Scgl/Gαi2, read-out: calculated Kd) was 0.5 nM.

With sandostatin, in the assay on porcine SSTR2, the “diameter of the growth zones, rank order” value is “S-14=MK678>sandostatin” and the growth response entry is listed as “dose-dependent growth response”.

For `Cc1cc(C(C)(C)C)c(O)c(C)c1CC1=NCCN1` [oxymetazoline], the growth response entry on rat CCKB receptor [2] (setting [13]) is “not observed”; at rat SSTR5 (LY620 cells, 3 days) it was “not observed”; in the assay with porcine SSTR2 (LY474 cells, 3 days) it was “not observed”; on human GRF receptor (CY990 cells, 3 days), “not observed”.

On to CCK-4: cholecystokinin, for which, in the assay with rat CCKB receptor [2], the “amount giving a detectable response” value turned out to be 10 µg and the “diameter of the growth zones, rank order” value was “CCK-8>gastrin>CCK-4”. The growth response result with rat CCKB receptor [2] (setting [13]) was “dose-dependent growth response”.

Turning to `O=C(CCCN1CCC2(CC1)C(=O)NCN2c1ccccc1)c1ccc(F)cc1` [^3H-spiperone, spiperone], the Bmax on human 5HTla receptor (saturation binding, strain CY382) was 3.2 pmol/mg protein; on human 5HTla receptor (strain carrying pCHI11), 3.1 pmol/mg.

On to `Nc1nc2c(ncn2[C@@H]2O[C@H](COP(=O)(O)OP(=O)(O)NP(=O)(O)O)[C@@H](O)[C@H]2O)c(=O)[nH]1` [Gpp (NH) p], for which the “percent radioligand bound compared to untreated samples, +Gpp(NH)p” value in [1] (strain CY602, Gαs) is reported as 0%; in assay [1] (strain CY603, Scgl), 4%; in assay [1] (strain CY624, Gαi) it was 22%. The “decrease of specific binding of 3H-CCK-8” value on rat CCKB receptor [3] was “greater than 50%”.

As to “[^125I-tyr^11]-somatostatin 14 (from UniProt P61278 103-116) (peptide)”, in [4], the Bmax stood at 146 fmol/mg. Also, the figures for the Bmax (fmol/mg total protein) in assay [5], in [6] and in assay [7] were 13.7, 24.7 and 94.5, respectively. Also, the dissociation constant Kd in assay [8] is 0.5 nM. Also, the figures for the percent radioligand bound with Gpp(NH)p compared to untreated samples in assay [9], in assay [10] and in assay [11] were 0%, 4% and 22%, respectively.

Take “met-enkephalin: an opiate receptor agonist”: in the assay with rat SSTR2, the “growth response (halo) around disks” value is “No detectable response”. The growth response result in the assay with rat CCKB receptor [2], with rat SSTR5, in the assay on porcine SSTR2 and with human GRF receptor was “not observed” each time.

As to `CC(C)NCC(O)c1ccc(O)c(O)c1` (centres unmarked) [isoproterenol], the growth response entry on rat CCKB receptor [2] (setting [13]) was “not observed”; at rat SSTR5 (LY620 cells, 3 days), “not observed”; in the assay on porcine SSTR2 (LY474 cells, 3 days) it was “not observed”; on human GRF receptor (CY990 cells, 3 days), “not observed”.

For the compound `C[N+](C)(C)CCOC(N)=O` [carbachol], the growth response result at rat CCKB receptor [2] (setting [13]) is “not observed”; at rat SSTR5 (LY620 cells, 3 days) it was “not observed”; with porcine SSTR2 (LY474 cells, 3 days), “not observed”; at human GRF receptor (CY990 cells, 3 days), “not observed”.

Turning to “hGRF (1-29)-NH2: an agonist analog of GRF”, in the assay with human GRF receptor, the “amount giving a detectable response” value is reported as 20 nmol. Moreover, the growth response result with human GRF receptor (CY990 cells, 3 days) is reported as “dose-dependent growth response”.

On to “hGRF (1-29)-NH2 (from UniProt P01286 32-60) (peptide)”, for which the amount giving a detectable growth response, strain CY990 in assay [12] is 20 nmol.

Consider “CCK-4 (from UniProt P06307 100-103) (peptide)”, for which, in the assay with rat CCKB receptor (rat), the amount giving a detectable growth response stood at 10 µg.

The values are drawn from patent US6607906B1, “Heterologous G protein coupled receptors expressed in yeast, their fusion with G proteins and use thereof in bioassay” (priority 1994, dated 2003).
